Source: ChEMBL document CHEMBL4261616, “Discovery of heterocyclic replacements for the coumarin core of anti-tubercular FadD32 inhibitors” (Bioorg Med Chem Lett, 2018)
≈ marks a conversion by molar mass, not a printed value.

Columns and labels:
[1] = biological target: T1, Long-chain-fatty-acid--AMP ligase FadD32 (Mycobacterium tuberculosis (strain ATCC 25618 / H37Rv)) (UniProt O53580); test: Inhibition of Mycobacterium tuberculosis H37Rv FadD32 assessed as reduction in bacterial viability after 6 days by resazurin dye based fluorescence assay
T1 sequence (whole entry): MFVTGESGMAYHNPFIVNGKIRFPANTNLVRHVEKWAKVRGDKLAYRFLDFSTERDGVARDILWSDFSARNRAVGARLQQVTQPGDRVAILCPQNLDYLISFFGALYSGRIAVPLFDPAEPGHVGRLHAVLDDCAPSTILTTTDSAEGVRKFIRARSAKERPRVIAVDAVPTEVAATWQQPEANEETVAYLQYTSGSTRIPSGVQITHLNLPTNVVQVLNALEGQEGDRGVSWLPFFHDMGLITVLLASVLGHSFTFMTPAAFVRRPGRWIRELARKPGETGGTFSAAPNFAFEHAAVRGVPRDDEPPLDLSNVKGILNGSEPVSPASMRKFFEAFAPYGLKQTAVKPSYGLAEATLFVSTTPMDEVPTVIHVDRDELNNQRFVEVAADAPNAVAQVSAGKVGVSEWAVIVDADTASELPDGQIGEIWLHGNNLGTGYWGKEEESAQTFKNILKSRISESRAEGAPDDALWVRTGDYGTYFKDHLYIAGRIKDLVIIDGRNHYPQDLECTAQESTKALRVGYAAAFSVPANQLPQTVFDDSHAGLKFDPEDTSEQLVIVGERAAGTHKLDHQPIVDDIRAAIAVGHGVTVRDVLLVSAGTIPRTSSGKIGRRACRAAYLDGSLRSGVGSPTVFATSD

[2] = Kinetic solubility of the compound at pH 7.4 by chemiluminescence nitrogen detection method; type: physicochemical; conditions: buffer, read-out: Kinetic_solubility
[3] = tested on: Mycobacterium tuberculosis; test: Antimycobacterial activity against Mycobacterium tuberculosis; type: functional
[4] = Metabolic stability in mouse liver microsomes at 1 uM after 60 mins by UPLC-MS/MS analysis; type: ADME, microsome; conditions: for remaining at 1 h, 1 µM: liver microsomes, read-out: Stability
[5] = Metabolic stability in human liver microsomes at 1 uM after 60 mins by UPLC-MS/MS analysis; type: ADME, microsome; conditions: for remaining at 1 h, 1 µM: liver microsomes, read-out: Stability
HepG2 = test: Cytotoxicity against human HepG2 cells after 48 hrs by CellTiter-Glo assay; type: cell-based; conditions: HepG2, 48 h
[6] = Protein binding in mouse plasma a 5 uM after 5 hrs by UPLC-MS based rapid equilibrium dialysis method; type: ADME, cell-free
[7] = Protein binding in human plasma a 5 uM after 5 hrs by UPLC-MS based rapid equilibrium dialysis method; type: ADME, cell-free
[8] = Plasma clearance in mouse at 1 mg/kg, iv; type: ADME, organism-based
[9] = tested on: Mycobacterium tuberculosis; test: Antimycobacterial activity against Mycobacterium tuberculosis H37Rv infected in C57BL/6J mouse assessed as log reduction in bacterial load in lungs up to 50 mg/kg, po qd via gavage up to day 8 post infection starting from day 1 post infection measured on day 9; type: functional
[10] = tested on: Mycobacterium tuberculosis; test: Antimycobacterial activity against Mycobacterium tuberculosis H37Rv infected in C57BL/6J mouse assessed as reduction in bacterial load in lungs administered po qd via gavage up to day 8 post infection starting from day 1 post infection measured on day 9; type: functional, organism-based
[11] = tested on: Mycobacterium tuberculosis; test: Antimycobacterial activity against Mycobacterium tuberculosis H37Rv infected in C57BL/6J mouse assessed as 2 log reduction in bacterial load in lungs administered po qd via gavage up to day 8 post infection starting from day 1 post infection measured on day 9; type: functional
Mus musculus = test: Toxicity in C57BL/6J mouse infected with Mycobacterium tuberculosis H37Rv assessed as mortality up to 50 mg/kg, po qd via gavage up to day 8 post infection starting from day 1 post infection measured daily; type: organism-based; conditions: in vivo
[12] = Drug level treated with 4-(4-fluorophenyl)-5,7-dimethyl-6-(4-(morpholinomethyl)phenyl)-2H-chromen-2-one under basic condition after 18 hrs at room temperature in presence of morpholine; type: physicochemical

Row | Structure (SMILES) | MIC90 [1] | solubility kinetic [2] | other results
1 | Cc1cc2nccc(-c3ccnn3C)c2c(C)c1-c1ccc(CN2CCOCC2)cc1 | 2.5 µM (≈ 1.03 µg/mL) | 243 µM (≈ 100 µg/mL) | 
2 | COc1cccc(-c2ccnc3cc(C)c(-c4ccc(CN5CCOCC5)cc4)c(C)c23)c1Cl | 10 µM (≈ 4.73 µg/mL) | 2 µM (≈ 0.946 µg/mL) | 
3 | Cc1cc2nccc(-c3ccccc3Cl)c2c(C)c1-c1ccc(CN2CCOCC2)cc1 | 0.3 µM (≈ 0.133 µg/mL) |  | 
4 | Cc1cc2nccc(-c3ccccc3Cl)c2c(C)c1-c1ccncc1 | 5 µM (≈ 1.72 µg/mL) | 21 µM (≈ 7.24 µg/mL) | 
5 | Cc1cc2oc(=O)cc(-c3ccccc3)c2c(C)c1-c1ccncc1 |  |  | MIC90 [3]: 0.24 to 5.6 µM (≈ 0.0786 to 1.83 µg/mL)
6 | Cc1cc2oc(=O)cc(-c3cccc(N)c3)c2c(C)c1-c1ccc(CN2CCOCC2)cc1 |  |  | MIC90 [3]: 0.24 to 5.6 µM (≈ 0.106 to 2.47 µg/mL)
7 | Cc1cc2nccc(-c3ccccc3C#N)c2c(C)c1-c1ccc(CN2CCOCC2)cc1 | 2.5 µM (≈ 1.08 µg/mL) | 24 µM (≈ 10.4 µg/mL) | 
8 | COc1ncccc1-c1ccnc2cc(C)c(-c3ccc(CN4CCOCC4)cc3)c(C)c12 | 2.5 µM (≈ 1.1 µg/mL) | 1 µM (≈ 0.44 µg/mL) | 
9 | Cc1cc2nc(C(C)(C)O)cc(-c3ccccc3Cl)c2c(C)c1-c1ccncc1 | > 40 µM | 38 µM (≈ 15.3 µg/mL) | 
10 | CCc1ccccc1CNc1ccnc2cc(C)c(-c3ccc(CN4CCOCC4)cc3)c(C)c12 | 2.5 µM (≈ 1.16 µg/mL) | 59 µM (≈ 27.5 µg/mL) | 
11 | Cc1cc2nc(C(=O)N3CCOCC3)cc(-c3ccccc3Cl)c2c(C)c1-c1ccncc1 | 15 µM (≈ 6.87 µg/mL) | 145 µM (≈ 66.4 µg/mL) | 
12 | COc1ccncc1-c1ccnc2cc(C)c(-c3ccc(CN4CCOCC4)cc3)c(C)c12 | 2.5 µM (≈ 1.1 µg/mL) | 169 µM (≈ 74.3 µg/mL) | 
13 | Cc1cc2nc(C(=O)NCCN(C)C)cc(-c3ccccc3Cl)c2c(C)c1-c1ccncc1 | 0.3 µM (≈ 0.138 µg/mL) | 263 µM (≈ 121 µg/mL) | remaining at 1 h, 1 µM [4]: 24%; remaining at 1 h, 1 µM [5]: 3.2%; IC50 (HepG2): 16 µM
14 | CCOC(=O)c1cc(-c2ccccc2Cl)c2c(C)c(-c3ccncc3)c(C)cc2n1 | 10 µM (≈ 4.17 µg/mL) | 9 µM (≈ 3.75 µg/mL) | 
15 | Cc1cc2nccc(-c3ccc(Cl)cc3)c2c(C)c1-c1ccc(CN2CCOCC2)cc1 | > 80 µM |  | 
16 | Cc1cc2nc(C(=O)O)cc(-c3ccccc3Cl)c2c(C)c1-c1ccncc1 | 80 µM (≈ 31.1 µg/mL) | 226 µM (≈ 87.9 µg/mL) | 
17 | Cc1cc2[nH]c(=O)cc(-c3ccccc3)c2c(C)c1-c1ccc(CN2CCOCC2)cc1 | > 40 µM |  | 
18 | Cc1cc2nccc(-c3cccnc3)c2c(C)c1-c1ccc(CN2CCOCC2)cc1 | 5 µM (≈ 2.05 µg/mL) | 209 µM (≈ 85.6 µg/mL) | 

Row | Structure (SMILES) | MIC90 [1] | solubility kinetic [2] | other results
19 | Cc1cc2nccc(-c3cncnc3)c2c(C)c1-c1ccc(CN2CCOCC2)cc1 | 2.5 µM (≈ 1.03 µg/mL) | > 230 µM | PPB [6]: 92.8%; PPB [7]: 95.2%; Stability ([4]; microsomes, 1 h, 1 µM): < 5%; Stability ([5]; microsomes, 1 h, 1 µM): 11.6%; clearance [8]: 65.1 mL/min/kg
20 | Cc1cccc(C)c1-c1ccnc2cc(C)c(-c3ccc(CN4CCOCC4)cc3)c(C)c12 | 5 µM (≈ 2.18 µg/mL) |  | 
21 | Cc1cc2nc(C(=O)N(C)C)cc(-c3ccccc3Cl)c2c(C)c1-c1ccncc1 | 20 µM (≈ 8.32 µg/mL) | 157 µM (≈ 65.3 µg/mL) | 
22 | Cc1cc2nc(C(N)=O)cc(-c3ccccc3Cl)c2c(C)c1-c1ccncc1 | 1.25 µM (≈ 0.485 µg/mL) | 8 µM (≈ 3.1 µg/mL) | 
23 | Cc1cc2nc(C(=O)NC(C)C)cc(-c3ccccc3Cl)c2c(C)c1-c1ccncc1 | 2.5 µM (≈ 1.07 µg/mL) | 4 µM (≈ 1.72 µg/mL) | 
24 | Cc1cc2nccc(-c3ccccc3C(N)=O)c2c(C)c1-c1ccc(CN2CCOCC2)cc1 | 20 µM (≈ 9.03 µg/mL) |  | 
25 | CNC(=O)c1cc(-c2ccccc2Cl)c2c(C)c(-c3ccncc3)c(C)cc2n1 | 0.8 µM (≈ 0.322 µg/mL) | 15 µM (≈ 6.03 µg/mL) | remaining at 1 h, 1 µM [4]: 19.1%; remaining at 1 h, 1 µM [5]: 19.4%; IC50 (HepG2): 60 µM; Activity [9]: 4 deltalog10CFU; Activity [10]: Dose-dependent effect; ED99 [11]: 7.8 mg/kg; Activity (Mus musculus): Non-Toxic
26 | Cc1cc2oc(=O)cc(-c3ccccc3)c2c(C)c1-c1ccc(CN2CCOCC2)cc1 |  |  | MIC90 [3]: 0.24 to 5.6 µM (≈ 0.102 to 2.38 µg/mL)
27 | Cc1cc2nc(CO)cc(-c3ccccc3Cl)c2c(C)c1-c1ccncc1 | 3.75 µM (≈ 1.41 µg/mL) | 32 µM (≈ 12 µg/mL) | 
28 | Cc1cc2nccc(-c3ccccc3)c2c(C)c1-c1ccc(CN2CCOCC2)cc1 | 0.45 µM (≈ 0.184 µg/mL) |  | 
29 | Cc1cc(O)c(/C(=C\C(=O)N2CCOCC2)c2ccc(F)cc2)c(C)c1-c1ccc(CN2CCOCC2)cc1 |  |  | Drug metabolism [12]: Metabolite_Detected
30 | Cc1cc2nc(C(=O)N3CCNCC3)cc(-c3ccccc3Cl)c2c(C)c1-c1ccncc1 | 10 µM (≈ 4.57 µg/mL) |  | 
31 | Cc1cc2nccc(-c3ccccc3C(=O)O)c2c(C)c1-c1ccc(CN2CCOCC2)cc1 | 40 µM (≈ 18.1 µg/mL) | 222 µM (≈ 100 µg/mL) | 
32 | Cc1cc2nc(C(=O)N3CCCC3)cc(-c3ccccc3Cl)c2c(C)c1-c1ccncc1 | 5 µM (≈ 2.21 µg/mL) | 41 µM (≈ 18.1 µg/mL) | 
33 | Cc1cc2nc(C(=O)NCCO)cc(-c3ccccc3Cl)c2c(C)c1-c1ccncc1 | 0.3 µM (≈ 0.13 µg/mL) | 25 µM (≈ 10.8 µg/mL) | remaining at 1 h, 1 µM [4]: 26.2%; remaining at 1 h, 1 µM [5]: 8%; IC50 (HepG2): 100 µM
34 | Cc1cc2nc(C(=O)NCCF)cc(-c3ccccc3Cl)c2c(C)c1-c1ccncc1 | 1.25 µM (≈ 0.542 µg/mL) | 5 µM (≈ 2.17 µg/mL) | 
35 | Cc1cc2nccc(-c3cccc(Cl)c3)c2c(C)c1-c1ccc(CN2CCOCC2)cc1 | 1.5 µM (≈ 0.664 µg/mL) | 1 µM (≈ 0.443 µg/mL) | 
36 | Cc1cc2occ(-c3ccccc3)c2c(C)c1-c1ccc(CN2CCOCC2)cc1 | 2.5 µM (≈ 0.994 µg/mL) |  | 
